Converted amounts (≈) assume the structure as drawn.

The source of these data is PMC11013662, “New Thiosemicarbazide Derivatives with Multidirectional Biological Action” (Molecules, 2024).

Assay type in all cases: cell-based
The test system of test [1] is Staphylococcus epidermidis ATCC 12228. The experiment in a line: Broth microdilution MIC / MBC. The note with it: ATCC12228, S. epidermidis ATCC 12228. The procedure: The microdilution method was used to determine the MIC values of newly synthesized compounds. The antimicrobial activity of the thiosemicarbazides series was tested on ten reference bacterial strains purchased from the American Type Culture Collection (ATCC). Seven Gram-positive reference strains (S. aureus ATCC 29213, S. aureus ATCC 43300, S. aureus ATCC 6538, S. aureus ATCC 25923, S. epidermidis ATCC 12228, M. luteus ATCC 10240, and B. cereus ATCC 10876) and three Gram-negative reference bacteria (K. pneumoniae ATCC 13883, E. coli ATCC 25922, S. typhimurium ATCC 14028) were used. These bacterial strains are representatives of microorganisms that can cause the most common opportunistic infections among humans. The bacteria were grown on Mueller–Hinton agar (MHA) plates before examination. To perform the assay, all bacteria were placed in sterile saline (0.85% NaCl) to obtain a suspension of the optical density of the 0.5 McFarland standard (1.50 × 10^8 colony-forming units (CFUs)/mL). A solution of the tested compounds was prepared in dimethyl sulfoxide (DMSO) at a concentration of 50 mg/mL as a stock solution.
A 96-well microtiter plate and microbroth two-fold dilution method was used to determine the minimum inhibitory concentration (MIC) according to the EUCAST (European Committee on Antimicrobial Susceptibility Testing) reference recommendation. The solutions were then diluted with Mueller–Hinton broth (MHB, Biomaxima, Lublin, Poland) medium to obtain a solution with a basic concentration of 1000 µg/mL. Then, using the two-fold dilution method with MHB, the tested compounds were introduced into the wells of the microplate to provide a final concentration in the range of 0.49 to 1000 µg/mL. Then, 2 μL of bacterial inoculum with a density of 0.5 McFarland standard was added into each well. Each well was filled with a total volume of 100 μL. Then, microtiter plates were incubated for 18 ± 2 h at 35 °C. After incubation, the growth of bacteria was monitored by a Biotek ELx800 (Biokom, Janki, Poland) spectrophotometer at 600 nm (OD600). The MIC assays were performed in triplicate.
A negative control with MHB and without tested compounds was used. Clinically used anti-bacterial agents, cefuroxime and vancomycin, were included as positive controls for the purpose of comparison in a concentration range from 0.007 to 15.625 µg/mL.
The in vitro antimicrobial activity of the tested compounds was determined by the MIC, which was defined as the lowest concentration of the compound tested at which no visible growth of the test bacteria was observed. The MBC (the minimum bactericidal concentration) is defined as the lowest concentration of antimicrobial agent resulting in reduction in the viability of the initial bacterial inoculum by ≥99.9% on the plate. Generally, an MBC/MIC ratio less than 4 is considered bactericidal for an antimicrobial, and an MBC/MIC > 8 is indicative of bacteriostatic activity. For the MBC test, the Mueller–Hinton agar (MHA, Biomaxima, Poland) plate assay was used. MBC was determined after the broth dilution period of an MIC test has been completed. After the MIC detection, 5 µL aliquots from each well were plated on an MHA plate and grown at 35 °C overnight. The MBC values were determined by observing the first clear area on the agar plate that has no observable bacterial growth.

The test system of test [2] is SW 620 human metastatic colon cancer cells. Nature of the test: MTT cytotoxicity assay. Conditions: for IC50: Homo sapiens, SW 620, MTT, 72 h; for SI (Selectivity Index): IC50 for normal cell line (V79)/IC50 cancer cell line (SW 620). The procedure:
Both lines were obtained from American Type Culture Collection (ATCC, Rockville, MD, USA). The culture used to grow the SW 620 cells was prepared in MEM (ThermoSci, Waltham, MA, USA). The V79 cells were cultured in RPMI (Biowest SAS, Nuaillé, France) with the addition of 20 mM HEPES (Biowest, Nuaillé, France), 10% fetal bovine serum (FBS, Sigma-Aldrich, St. Louis, MO, USA), 100 µg/mL of streptomycin, and 100 U/mL of penicillin (Gibco, Grand Island, NY, USA). […] The MTT assay was used to establish the cytotoxic activity of the studied compounds. […] The process starts with the preparation of 96-well plates by placing cells at a density of 1 × 10^4 per well and incubating them for 24 h to adhere. […] Next, cells were incubated for 72 h at 37 °C with a 5% CO2. Then, a solution of MTT (0.5 mg/mL) was added to each well and plates were incubated for 4 h more in the same conditions. To dissolve precipitated formazan crystals, a mixture of DMSO and isopropanol (in a 1:1 ratio, v/v) was used. […] Cell viability was determined as the percentage of MTT reduction in the treated cells compared to the control group (unexposed cells). The relative MTT level, represented as a percentage, was calculated using the formula [A]/[B] × 100, where [A] stands for the absorbance of the treated cell sample and [B] for the absorbance of unexposed to studied compounds sample (control group).

Test [3] relates to V79 Chinese hamster lung cells. The experiment in a line: MTT cytotoxicity assay. Conditions: Cricetulus griseus, V 79 normal cells, 72 h. The procedure:
Both lines were obtained from American Type Culture Collection (ATCC, Rockville, MD, USA). The culture used to grow the SW 620 cells was prepared in MEM (ThermoSci, Waltham, MA, USA). The V79 cells were cultured in RPMI (Biowest SAS, Nuaillé, France) with the addition of 20 mM HEPES (Biowest, Nuaillé, France), 10% fetal bovine serum (FBS, Sigma-Aldrich, St. Louis, MO, USA), 100 µg/mL of streptomycin, and 100 U/mL of penicillin (Gibco, Grand Island, NY, USA). The eligible level of cells confluence was 80–90%, and both cell cultures were maintained in a humidified incubator set at 37 °C with 5% CO2 until they reached it.
The MTT assay was used to establish the cytotoxic activity of the studied compounds. The mechanism of this method relies on enzymatic conversion of 3-(4,5-dimethylthiazol-2-yl)-2,5-diphentyltetrazolium bromide salt (MTT) into insoluble formazan crystals by mitochondrial dehydrogenases within viable cells.
The process starts with the preparation of 96-well plates by placing cells at a density of 1 × 10^4 per well and incubating them for 24 h to adhere. Afterwards, the cells were treated with different concentrations of thiosemicarbazide derivatives, from 20 to 100 µM, except the control group which remained not exposed. Next, cells were incubated for 72 h at 37 °C with a 5% CO2. Then, a solution of MTT (0.5 mg/mL) was added to each well and plates were incubated for 4 h more in the same conditions.
To dissolve precipitated formazan crystals, a mixture of DMSO and isopropanol (in a 1:1 ratio, v/v) was used. For the spectrophotometric survey, we used MultiscanGo from Thermo Scientific with the wavelength value set at 570 nm to measure absorbance.
Cell viability was determined as the percentage of MTT reduction in the treated cells compared to the control group (unexposed cells). The relative MTT level, represented as a percentage, was calculated using the formula [A]/[B] × 100, where [A] stands for the absorbance of the treated cell sample and [B] for the absorbance of unexposed to studied compounds sample (control group). […] To calculate IC50 values (concentration at which 50% of cell viability is inhibited), we used GraphPad Prism 8.0.1 software.

For `COc1cccc(NC(=S)NNC(=O)c2cccc(C(F)(F)F)c2)c1` [Compound 3b, 1-(3-Trifluoromethylbenzoyl)-4-(3-methoxyphenyl)thiosemicarbazide], the MIC in test [1] is greater than 1000 mg/L. Further, in test [2], the IC50 was greater than 100 µM and the “SI (Selectivity Index)” value is listed as 1. The compound further returned an IC50 in test [3] greater than 100 µM.
In the case of `O=C(NNC(=S)Nc1cccc(Cl)c1)c1cccc(C(F)(F)F)c1` [Compound 3a, 4-(3-Chlorophenyl)-1-(3-trifluoromethylbenzoyl)thiosemicarbazide], in test [1], the minimal bactericidal concentration (MBC) was found to be 15.6 mg/L (≈ 41.8 µM) and the lowest concentration to inhibit growth (MIC) was 1.95 mg/L (≈ 5.22 µM). For the same compound, in test [2], the IC50 is 69 ± 12.6 µM and the “SI (Selectivity Index)” value is listed as 0.59. In addition, the 50% inhibitory concentration (IC50) in test [3] was 40.5 ± 3.83 µM.
In the case of `O=C(NNC(=S)Nc1ccccc1)c1cccc(C(F)(F)F)c1` [Compound 3f, 1-(3-Trifluoromethylbenzoyl)-4-(phenyl)thiosemicarbazide], the lowest concentration to inhibit growth in test [1] (MIC) was 1000 mg/L (≈ 2950 µM). The IC50 in test [2] and in test [3] was greater than 100 µM throughout. Moreover, the “SI (Selectivity Index)” value in test [2] worked out at 1.
Take `O=C(NNC(=S)Nc1cccc(F)c1)c1cccc(C(F)(F)F)c1` [Compound 3e, 1-(3-Trifluoromethylbenzoyl)-4-(3-fluorophenyl)thiosemicarbazide]: in test [1], the MBC is greater than 1000 mg/L and the lowest concentration to inhibit growth (MIC) was 31.2 mg/L (≈ 87.5 µM). The compound also displayed a concentration for half-maximal inhibition (IC50) in test [2] of 89.9 ± 14.6 µM. In test [3], this compound had a half-inhibitory concentration (IC50) greater than 100 µM.
Turning to `Cc1cccc(NC(=S)NNC(=O)c2cccc(C(F)(F)F)c2)c1` [Compound 3d, 1-(3-Trifluoromethylbenzoyl)-4-(3-methylphenyl)thiosemicarbazide], in test [1], the lowest concentration to inhibit growth (MIC) was 1000 mg/L (≈ 2830 µM). Further, in test [2], the IC50 is greater than 100 µM and the “SI (Selectivity Index)” value was determined as 0.69. Further, in test [3], the IC50 was found to be 69.1 ± 5.45 µM.
The like results for `FC(F)(F)c1cccc(-c2n[nH]c(=S)n2-c2cccc(Cl)c2)c1` [Compound 4, 4-(3-Chlorophenyl)-5-(3-trifluoromethylphenyl)-2,4-dihydro-3H-1,2,4-triazole-3-thione] were, in that order, 500 mg/L (≈ 1410 µM), greater than 100 µM, 1 and greater than 100 µM.
`CCCCNC(=S)NNC(=O)c1cccc(C(F)(F)F)c1` [Compound 3c, 4-Butyl-1-(3-trifluoromethylbenzoyl)thiosemicarbazide] gave a minimum inhibitory concentration (MIC) in test [1] of 1000 mg/L (≈ 3130 µM). Besides, in test [2], the IC50 is greater than 100 µM and the “SI (Selectivity Index)” value turned out to be 1. Besides, the 50% inhibitory concentration (IC50) in test [3] is greater than 100 µM.
